Laboratory results reported in patent US8772316B2, “Substituted 6,7-dialkoxy-3-isoquinolinol derivatives as inhibitors of phosphodiesterase 10 (PDE10A)” (Allergan, Inc., priority 2011, dated 2014).
Structures can show the parent of a compound that is named as a salt.

Biological target: PDE10A
Assay: Phosphodiesterase assay (TR-FRET, LANCE cAMP kit)
Format: biochemical
Conditions: PDE10A (BPS Bioscience) 200 pg/well, biotin-cAMP substrate, 60 min at room temperature
Procedure: The PDE assay is based on the homogenous time-resolved fluorescence resonance energy transfer (TR-FRET) technology (LANCE® from Perkin Elmer). […] When there is PDE activity, resulting in the degradation of the cyclic nucleotide, the complex is not formed and a decrease in signal is observed.
The phosphodiesterase assay was developed using the LANCE® cAMP kit (PerkinElmer). The assay buffer contained HBSS with 5 mM HEPES, 0.1% BSA, and 1.5 mM MgCl2, pH 7.4. PDE10A (BPS Bioscience) was used at 200 pg/well (with a specific activity of 3200 pmole/min/μg with assay conditions: 10 mM Tris-HCl, pH7.4, 10 mM MgCl2, 1 mM MnCl2, 200 μM cAMP, 2.5 kU 5′ nucleotidase, 37° C., 20 min). […] Chemical compounds were dissolved in DMSO (final concentration 2% (v/v)).
In a 384-well plate, 2 μL inhibitor and 3 μL PDE were added to the well, followed by the addition of 5 μl substrate biotinylated cAMP (1:5). After 60 min incubation at room temperature, 10 μL of assay detection mixture was added to the assay plate. After 1 h at room temperature, the signal was measured on EnVision™ (Perkin Elmer).

SMILES | IC50 [nM]
CCCc1nc(O)c(Cc2ccc3oc4ccccc4c3c2)c2cc(OC)c(OC)cc12 [Compound 7, 4-(Dibenzo[b,d]furan-2-ylmethyl)-6,7-dimethoxy-1-propylisoquinolin-3-ol hydrochloride] | 0.5
CCc1nc(O)c(Cc2cccc(-c3ccccc3)c2)c2cc(OC)c(OC)cc12 [Compound 8, 4-([1,1′-Biphenyl]-3-ylmethyl)-1-ethyl-6,7-dimethoxyisoquinolin-3-ol hydrochloride] | 6710
CCc1nc(O)c(Cc2cccc(-c3ccc(OC)cc3)c2)c2cc(OC)c(OC)cc12 [Compound 9, 1-ethyl-6,7-dimethoxy-4-((4′-methoxy-[1,1′-biphenyl]-3-yl)methyl)isoquinolin-3-ol hydrochloride] | 10600
CCc1nc(O)c(Cc2cccc(-c3cccc(N)c3)c2)c2cc(OC)c(OC)cc12 [Compound 10, 4-((3′-amino-[1,1′-biphenyl]-3-yl)methyl)-1-ethyl-6,7-dimethoxyisoquinolin-3-ol dihydrochloride] | 52
COc1cc2c(C)nc(O)c(Cc3cccc(-c4ccccc4)n3)c2cc1OC [Compound 12, 6,7-dimethoxy-1-methyl-4-((6-phenylpyridin-2-yl)methyl)isoquinolin-3-ol dihydrochloride] | 94
COc1cc2c(C)nc(O)c(Cc3cccc(-c4ccncc4)n3)c2cc1OC [Compound 14, 4-([2,4′-bipyridin]-6-ylmethyl)-6,7-dimethoxy-1-methylisoquinolin-3-ol trihydrochloride] | 100
COc1ccc(-c2cncc(Cc3c(O)nc(C)c4cc(OC)c(OC)cc34)c2)cc1 [Compound 16, 6,7-dimethoxy-4-((5-(4-methoxyphenyl)pyridin-3-yl)methyl)-1-methylisoquinolin-3-ol dihydrochloride] | 69
COc1cc2c(C)nc(O)c(Cc3ccc4ccccc4c3)c2cc1OC [Compound 17, 6,7-dimethoxy-1-methyl-4-(naphthalen-2-ylmethyl)isoquinolin-3-ol hydrochloride] | 14
COc1cc2c(C)nc(OC)c(Cc3ccc4ccccc4c3)c2cc1OC [Compound 18, 3,6,7-trimethoxy-1-methyl-4-(naphthalen-2-ylmethyl)isoquinoline hydrochloride] | 1410
CCCc1nc(O)c(Cc2ccc3ccccc3c2)c2cc(OC)c(OC)cc12 [Compound 20, 6,7-dimethoxy-4-(naphthalen-2-ylmethyl)-1-propylisoquinolin-3-ol hydrochloride] | 34
COc1cc2c(C)nc(O)c(Cc3ccc4ccccc4n3)c2cc1OC [Compound 23, 6,7-dimethoxy-1-methyl-4-(quinolin-2-ylmethyl)isoquinolin-3-ol dihydrochloride] | 130
COc1cc2c(C)nc(O)c(Cc3ccc4ncccc4c3)c2cc1OC [Compound 24, 6,7-dimethoxy-1-methyl-4-(quinolin-6-ylmethyl)isoquinolin-3-ol dihydrochloride] | 86
COc1cc2c(C)nc(O)c(Cc3cnc4ccccc4c3)c2cc1OC [Compound 26, 6,7-Dimethoxy-1-methyl-4-(quinolin-3-ylmethyl)isoquinolin-3-ol dihydrochloride] | 24
COc1cc2c(C)nc(O)c(Cc3cnc4cccc(OC)c4c3)c2cc1OC [Compound 27, 6,7-Dimethoxy-4-((5-methoxyquinolin-3-yl)methyl)-1-methylisoquinolin-3-ol dihydrochloride] | 17
CCOc1cccc2ncc(Cc3c(O)nc(C)c4cc(OC)c(OC)cc34)cc12 [Compound 28, 4-((5-Ethoxyquinolin-3-yl)methyl)-6,7-dimethoxy-1-methylisoquinolin-3-ol dihydrochloride] | 6
CCCc1nc(O)c(Cc2cnc3cc(OC)ccc3c2)c2cc(OC)c(OC)cc12 [Compound 32, 6,7-dimethoxy-4-((7-methoxyquinolin-3-yl)methyl)-1-propylisoquinolin-3-ol dihydrochloride] | 4
CNc1nc2ccc(C)cc2cc1Cc1c(O)nc(C)c2cc(OC)c(OC)cc12 [Compound 33, 6,7-Dimethoxy-1-methyl-4-((6-methyl-2-(methylamino)quinolin-3-yl)methyl)isoquinolin-3-ol dihydrochloride] | 13
CCCc1nc(O)c(Cc2cc3cc(C)ccc3nc2NC)c2cc(OC)c(OC)cc12 [Compound 34, 6,7-dimethoxy-4-((6-methyl-2-(methylamino)quinolin-3-yl)methyl)-1-propylisoquinolin-3-ol dihydrochloride] | 1.9
CNc1nc2ccc(OC)cc2cc1Cc1c(O)nc(C)c2cc(OC)c(OC)cc12 [Compound 37, 6,7-Dimethoxy-4-((6-methoxy-2-(methylamino)quinolin-3-yl)methyl)-1-methyl-isoquinolin-3-ol dihydrochloride] | 6
CCc1nc(O)c(Cc2cc3cc(OC)ccc3nc2NC)c2cc(OC)c(OC)cc12 [Compound 39, 1-ethyl-6,7-dimethoxy-4-((6-methoxy-2-(methylamino)quinolin-3-yl)methyl)isoquinolin-3-ol dihydrochloride] | 1.6
CCNc1nc2ccc(OC)cc2cc1Cc1c(O)nc(CC)c2cc(OC)c(OC)cc12 [Compound 40, 1-Ethyl-6,7-dimethoxy-4-((6-methoxy-2-(ethylamino)quinolin-3-yl)methyl)isoquinolin-3-ol dihydrochloride] | 0.4
CCNc1nc2ccc(OCC)cc2cc1Cc1c(O)nc(CC)c2cc(OC)c(OC)cc12 [Compound 41, 4-((6-Ethoxy-2-(ethylamino)quinolin-3-yl)methyl)-1-ethyl-6,7-dimethoxyisoquinolin-3-ol dihydrochloride] | 5
CCCNc1nc2ccc(OC)cc2cc1Cc1c(O)nc(CC)c2cc(OC)c(OC)cc12 [Compound 42, 1-ethyl-6,7-dimethoxy-4-((6-methoxy-2-(propylamino)quinolin-3-yl)methyl)isoquinolin-3-ol dihydrochloride] | 0.5
CCc1nc(O)c(Cc2cc3cc(OC)ccc3nc2NCc2ccccc2)c2cc(OC)c(OC)cc12 [Compound 44, 4-((2-(Benzylamino)-6-methoxyquinolin-3-yl)methyl)-1-ethyl-6,7-dimethoxyisoquinolin-3-ol dihydrochloride] | 8

Results, then the compound that gave them:

IC50 [nM] | SMILES
29 | CCNc1nc2ccc(OCC)cc2cc1Cc1c(O)nc(C(C)C)c2cc(OC)c(OC)cc12 [Compound 46, 4-((6-Ethoxy-2-(ethylamino)quinolin-3-yl)methyl)-1-isopropyl-6,7-dimethoxyisoquinolin-3-ol dihydrochloride]
0.8 | CCCc1nc(O)c(Cc2cc3cc(OC)ccc3nc2NC(C)C)c2cc(OC)c(OC)cc12 [Compound 53, 4-((2-(Isopropylamino)-6-methoxyquinolin-3-yl)methyl)-6,7-dimethoxy-1-propylisoquinolin-3-ol dihydrochloride]
23 | CCCc1nc(O)c(Cc2cc3cc(OC)ccc3nc2NCC(F)(F)F)c2cc(OC)c(OC)cc12 [Compound 54, 6,7-dimethoxy-4-((6-methoxy-2-((2,2,2-trifluoroethyl)amino)quinolin-3-yl)methyl)-1-propylisoquinolin-3-ol dihydrochloride]
4.4 | CCCc1nc(O)c(Cc2cc3cc(OC)ccc3nc2NCCNC(C)=O)c2cc(OC)c(OC)cc12 [Compound 55, N-(2-((3-((3-hydroxy-6,7-dimethoxy-1-propylisoquinolin-4-yl)methyl)-6-methoxyquinolin-2-yl)amino)ethyl)acetamide dihydrochloride]
175 | CCNc1nc2ccc(OC)cc2cc1Cc1c(OC(C)=O)nc(CNC(C)=O)c2cc(OC)c(OC)cc12 [Compound 56, 1-(Acetamidomethyl)-4-((2-(ethylamino)-6-methoxyquinolin-3-yl)methyl)-6,7-dimethoxyisoquinolin-3-yl acetate]
47 | CCNc1nc2ccc(OC)cc2cc1Cc1c(O)nc(CNC(C)=O)c2cc(OC)c(OC)cc12 [Compound 57, N-((4-((2-(ethylamino)-6-methoxyquinolin-3-yl)methyl)-3-hydroxy-6,7-dimethoxyisoquinolin-1-yl)methyl)acetamide dihydrochloride]
27 | CNc1nc2cc(O)c(O)cc2cc1Cc1c(O)nc(C)c2cc(OC)c(OC)cc12 [Compound 59, 3-((3-hydroxy-6,7-dimethoxy-1-methylisoquinolin-4-yl)methyl)-2-(methylamino)quinoline-6,7-diol dihydrochloride]
2.7 | CNc1nc2cc3c(cc2cc1Cc1c(O)nc(C)c2cc(OC)c(OC)cc12)OCO3 [Compound 60, 6,7-dimethoxy-1-methyl-4-((6-(methylamino)-[1,3]dioxolo[4,5-g]quinolin-7-yl)methyl)isoquinolin-3-ol dihydrochloride]
2.2 | CCc1nc(O)c(Cc2cc3cc4c(cc3nc2NC)OCO4)c2cc(OC)c(OC)cc12 [Compound 61, 1-ethyl-6,7-dimethoxy-4-((6-(methylamino)-[1,3]-dioxolo[4,5-g]quinolin-7-yl)methyl)isoquinolin-3-ol dihydrochloride]
1.1 | CCCc1nc(O)c(Cc2cc3cc4c(cc3nc2NC)OCO4)c2cc(OC)c(OC)cc12 [Compound 62, 6,7-dimethoxy-4-((6-(methylamino)-[1,3]-dioxolo[4,5-g]quinolin-7-yl)methyl)-1-propylisoquinolin-3-ol dihydrochloride]
